Paper PMC7177849, “Gut Microbial Catabolites of Tryptophan Are Ligands and Agonists of the Aryl Hydrocarbon Receptor: A Detailed Characterization” (International Journal of Molecular Sciences, 2020)
Where “and” joins values, the source holds several entries; their conditions need not be identical. Equal values may be shown once. Read-outs that look alike come from different tables or passages of the source.

Columns and labels:
CYP1A1 mRNA = CYP1A1 mRNA (qRT-PCR) in wild-type and AhR-knockout HT-29 cells; type: cell-based, human
Procedure: Figure 4 Effects of MICT on the induction of CYP1A1 mRNA in human hepatic and intestinal cells. Cultured cells were incubated for 24 h with the vehicle (DMSO; 0.1% v/v) and tested MICT in the presence or absence of TCDD (10 nM). RT-PCR determined the level of CYP1A1 mRNA, and the data were normalized per GAPDH mRNA level. […] (A,B) Experiments in three consecutive passages of human colon adenocarcinoma cell line LS180 in the absence (A) and the presence (B) of 10 nM TCDD. The bar graphs show the percentage of maximal induction attained by TCDD and are expressed as the mean ± SD. (C) Experiments in three consecutive passages of wild-type (AhR^+/^+) and AhR-knockout (AhR^−/^−) HT-29 cells. […] (D) Primary human hepatocytes from three different donors (LH79, Hep2201020, and Hep2201021).
CRISPR/Cas9 knockout of the AhR in HT-29 cells: A CRISPR/Cas9 expression vector with GFP, pSpCas9(BB)-2A-GFP (PX458) (#48138; Addgene, Cambridge, MA, USA) was used for integration of the gRNA complementary to exon 2 of the AHR gene. 4 × 10^5 cells were seeded in a 6-well plate and transfected (at 60–70% confluence) with a mixture of vector DNA and Lipofectamine™ 3000 (Life Technologies) according to the manufacturer’s instructions. The transfected cells positive for GFP signal were sorted using BD Aria II Sorp (Becton Dickinson, Franklin Lakes, NJ, USA), in a single cell suspension into a 96-well plate. DNA isolation was performed by a QIAamp DNA Mini Kit (Qiagen, Hilden, Germany) according to the manufacturer’s instructions. The function of the CRISPR/Cas9 system was verified by the SURVEYOR mutation detection kit (Integrated DNA Technologies, Leuven, Belgium) according to the manufacturer’s instructions. The positive clones were checked for AhR expression by Western Blotting. PCR amplification products were purified using the QIAquick PCR Purification Kit (Qiagen) and integrated into a plasmid vector (pGEM_T Easy Vector Systems, Promega), and E.coli DHP α (MAX Efficiency DH5a Competent Cells, Thermo Fisher; Waltham, MA, USA) were transformed according to manufacturer’s instructions, DNA was isolated, and deletions in the AhR gene sequences were verified by sequencing (Mix2seq, Eurofins Genomic, Luxembourg).
Total RNA was isolated using TRI Reagent® (Sigma Aldrich, Prague, Czech Republic). cDNA was synthesized using M-MuLV reverse transcriptase (New England Biolabs, Ipswich, MA, USA). The reverse transcription was performed at 42 °C for 60 min using Random Primers 6 (New England Biolabs, Ipswich, MA, USA) and diluted in a 1:4 ratio by PCR-grade water. The quantitative reverse transcriptase-polymerase chain reaction (qRT-PCR) was performed on the Lightcycler 480 II using the LightCycler ® 480 Probes Master (Roche Diagnostic Corporation, Prague, Czech Republic). The levels of CYP1A1 and GAPDH mRNAs were determined using the Universal Probe Library probes (UPL; Roche Diagnostic Corporation, Prague, Czech Republic) in combination with specific primers, using a protocol described elsewhere. All measurements were performed in triplicates, and the gene expression was normalized to glyceraldehyde-3-phosphate dehydrogenase (GAPDH) as a house-keeping gene. The data were processed using the delta-delta Ct method and expressed as a fold induction over the negative control (DMSO) or as a percentage of the positive control (maximal induction by TCDD).

AhR = target: T1, AhR (Homo sapiens, UniProt P35869); assay: Reporter gene assay in AZ-AHR cells, agonist analyses (luciferase)
T1 sequence (P35869 11-848): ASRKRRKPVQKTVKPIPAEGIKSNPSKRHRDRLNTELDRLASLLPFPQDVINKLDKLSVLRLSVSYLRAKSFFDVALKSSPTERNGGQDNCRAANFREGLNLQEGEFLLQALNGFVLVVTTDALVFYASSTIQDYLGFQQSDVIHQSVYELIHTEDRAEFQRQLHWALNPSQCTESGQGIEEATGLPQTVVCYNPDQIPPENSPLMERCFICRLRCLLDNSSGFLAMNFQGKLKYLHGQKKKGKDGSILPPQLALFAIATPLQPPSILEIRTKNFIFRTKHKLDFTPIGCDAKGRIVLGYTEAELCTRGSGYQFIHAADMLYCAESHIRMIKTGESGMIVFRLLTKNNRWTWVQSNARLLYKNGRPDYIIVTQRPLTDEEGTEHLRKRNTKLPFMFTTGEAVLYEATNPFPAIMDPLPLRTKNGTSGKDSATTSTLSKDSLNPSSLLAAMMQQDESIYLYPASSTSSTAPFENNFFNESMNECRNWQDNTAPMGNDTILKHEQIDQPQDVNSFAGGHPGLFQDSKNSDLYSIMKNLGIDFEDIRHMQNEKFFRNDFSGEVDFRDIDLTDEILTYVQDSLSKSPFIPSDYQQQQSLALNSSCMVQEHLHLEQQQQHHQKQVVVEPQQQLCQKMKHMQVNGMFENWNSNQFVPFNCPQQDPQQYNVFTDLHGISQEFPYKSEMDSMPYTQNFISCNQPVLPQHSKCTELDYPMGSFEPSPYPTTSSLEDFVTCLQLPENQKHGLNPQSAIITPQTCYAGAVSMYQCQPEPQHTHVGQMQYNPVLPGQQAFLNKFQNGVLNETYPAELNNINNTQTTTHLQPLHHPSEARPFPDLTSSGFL
Procedure: In the first series of experiments, we evaluated the agonistic and antagonistic effects of MICT on the AhR activation. […] The antagonistic effects of MICT were evaluated against typical full agonists of the AhR, comprising TCDD, BaP, and FICZ, which were applied at fixed concentrations corresponding to their EC80.
Following the treatments, we lysed cells, and luciferase activity was measured. Experiments were performed at least in four consecutive cell passages. Incubations were performed in quadruplicates (technical replicates). In agonist analyses, the data from a representative experiment, expressed as a fold induction of luciferase activity over control cells, are shown. In antagonist analyses, the data are a percentage of maximal induction, and they are the mean ± SD.
Then, cells were lysed, and luciferase activity was measured using the Tecan Infinite M200 plate luminometer (Schoeller Instruments, Czech Republic). The experiments were performed in at least four consecutive cell passages, and the treatments were in quadruplicates (technical replicates). The values of half-maximal effective concentration (EC50) for each MICT, and half-maximal inhibitory concentration (IC50—where appropriate) were calculated.
Supplementary Figure 2. Tryptophan effects in culture medium on AhR activity. (A) Time-course of Trp
levels in culture media from hepatic (AZ-AHR), instestinal (LS174T) and skin (HaCaT) cells. Determined by
HPLC. (B) Induction of AhR-dependent luciferase activity in AZ-AHR cells incubated for 24 h with TCDD,
Indole and Trp in Trp/serum-free culture medium. (C) Induction of AhR-dependent luciferase activity in
AZ-AHR cells incubated for 24 h with TCDD and Indole in standard (+Trp/+FBS), serum-free (+Trp/-FBS),
Trp-free (-Trp/+FBS) and Trp/serum-free (-Trp/-FBS) culture medium. […]

[1] = colon HT-29 cells, wild-type, 24 h
[2] = EC50, AZ-AHR cells, 24 h, agonist analyses
[3] = read-out: fold induction of luciferase activity (efficacy)

Compound | induction of CYP1A1 mRNA (CYP1A1 mRNA; [1]) | EC50 (AhR; [2]) | Efficacy (EMAX) (AhR; Table 1 summary class) | Potency (EC50) (AhR; Table 1 summary class) | other results
Cc1c[nH]c2ccccc12 [3MI, skatole] | weaker inducers | 103 ± 1.78 µM | medium | low | 
O=Cc1c[nH]c2ccccc12 [IA, indole-3-aldehyde] |  | 62.2 µM and 62 µM | low | low | 
O=C(O)/C=C/c1c[nH]c2ccccc12 [IAC, indole-3-acrylate] | strong induction | 42.3 ± 3.32 µM | medium | low | fold induction at 100 µM (AhR; [3]): 40 to 100
NC(=O)Cc1c[nH]c2ccccc12 [IAD, indole-3-acetamide] | strong induction | 99.9 ± 2.86 µM | high | low | 
OCCc1c[nH]c2ccccc12 [IET, indole-3-ethanol] |  | 98 ± 6.41 µM | medium | low | 
O=C(O)C(O)Cc1c[nH]c2ccccc12 (centres unmarked) [ILA, indole-3-lactate] |  | 82 ± 17.1 µM | low |  | Potency (EC50) (AhR): low
c1ccc2[nH]ccc2c1 [IND, indole] |  |  |  |  | induction of CYP1A1 mRNA (CYP1A1 mRNA): weaker inducers; Efficacy (EMAX) (AhR): high; Potency (EC50) (AhR): very low; induced luciferase activity (AhR): 500 fold; EC50 (AhR; EC50): ~1500 µM and 1480 µM; fold induction at 10000 µM (AhR; [3]): 200 to 600
O=C(O)C(=O)Cc1c[nH]c2ccccc12 [IPY, indole-3-pyruvate] | strong induction | 98.5 ± 10.1 µM | high | low | 
NCCc1c[nH]c2ccccc12 [TA, tryptamine] | weaker inducers | 83.1 ± 12.7 µM | medium | low | 
Clc1cc2c(cc1Cl)Oc1cc(Cl)c(Cl)cc1O2 [TCDD, 2,3,7,8-tetrachlorodibenzo-p-dioxin, reference compound] |  |  |  |  | CYP1A1 induction (CYP1A1 mRNA; AhR knock-out HT-29 variant, 24 h): nullified; induced luciferase activity (AhR; AZ-AHR cells, 24 h, Trp-free/serum-free medium): 10000 fold
